Assays:
Test in all cases: relative viability (nuclei count vs DMSO), 5 days (fraction); higher = more cells survive
[1] = system: 201T
In short: (§1)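 Each reported value is a median over duplicate plates. It expresses relative viability: treated-well nuclei count divided by vehicle-well nuclei count. Lung cancer cell lines in 1536-well plates were dosed by pin tool a day after seeding, alone with one drug or with a fixed anchor-drug dose plus five library-drug doses (not always all listed) in √10 steps, and nuclei were counted after 5 days.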

[2] = system: ABC-1
In short: as §1

[3] = system: BEN
In short: as §1

[4] = system: CAL-12T
In short: as §1

[5] = system: COR-L 105
In short: as §1

[6] = system: EKVX
In short: as §1

[7] = system: HARA
In short: as §1

[8] = system: LK-2
In short: as §1

[9] = system: LOU-NH91
In short: as §1

[10] = system: NCI-H1437
In short: as §1

[11] = system: NCI-H1650
In short: as §1

[12] = system: NCI-H1666
In short: as §1

[13] = system: NCI-H2009
In short: as §1

[14] = system: NCI-H2170
In short: as §1

[15] = system: NCI-H3122
In short: as §1

[16] = system: NCI-H441
In short: as §1

[17] = system: NCI-H460
In short: as §1

[18] = system: NCI-H661
In short: as §1

[19] = system: NCI-H727
In short: as §1

[20] = system: PC-14
In short: as §1

[21] = system: SW 900
In short: as §1

`COc1nc(C)cnc1NS(=O)(=O)c1cccnc1-c1ccc(-c2nnco2)cc1` [Zibotentan] + CCNC(=O)c1noc(-c2cc(C(C)C)c(O)cc2O)c1-c1ccc(CN2CCOCC2)cc1 [Luminespib] (partner 0.01 µM) gave a relative viability ([1]; first compound 0.08 µM) of 1.11, a relative viability ([1]; first compound 0.253 µM) of 1.03 and a relative viability ([1]; first compound 0.8 µM) of 1.14. It also gave a relative viability ([1]; first compound 2.53 µM) of 1.07, a relative viability ([2]; first compound 0.08 µM) of 0.48 and a relative viability ([2]; first compound 0.8 µM) of 0.694. The relative viability ([2]; first compound 2.53 µM) was 0.696, the relative viability ([3]; first compound 0.08 µM) was 0.401 and the relative viability ([3]; first compound 0.253 µM) was 0.356. It also gave a relative viability ([3]; first compound 0.8 µM) of 0.395, a relative viability ([3]; first compound 2.53 µM) of 0.537 and a relative viability ([4]; first compound 0.08 µM) of 0.598. It also gave a relative viability ([4]; first compound 0.253 µM) of 0.123, a relative viability ([4]; first compound 0.8 µM) of 0.415 and a relative viability ([4]; first compound 2.53 µM) of 0.418. It also gave a relative viability ([5]; first compound 0.08 µM) of 0.938, a relative viability ([5]; first compound 0.253 µM) of 0.693 and a relative viability ([5]; first compound 0.8 µM) of 0.891. It also gave a relative viability ([5]; first compound 2.53 µM) of 0.74, a relative viability ([6]; first compound 0.08 µM) of 0.762 and a relative viability ([6]; first compound 0.253 µM) of 0.88. It also gave a relative viability ([6]; first compound 0.8 µM) of 0.832, a relative viability ([6]; first compound 2.53 µM) of 0.877 and a relative viability ([7]; first compound 0.08 µM) of 0.731. For the same compound, the relative viability ([7]; first compound 0.253 µM) was 0.705, the relative viability ([7]; first compound 0.8 µM) was 0.636 and the relative viability ([7]; first compound 2.53 µM) was 0.836. The relative viability ([8]; first compound 0.08 µM) was 0.216, the relative viability ([8]; first compound 0.253 µM) was 0.208 and the relative viability ([8]; first compound 0.8 µM) was 0.168. For the same compound, the relative viability ([8]; first compound 2.53 µM) was 0.154, the relative viability ([9]; first compound 0.08 µM) was 0.33 and the relative viability ([9]; first compound 0.253 µM) was 0.315. For the same compound, the relative viability ([9]; first compound 0.8 µM) was 0.382, the relative viability ([9]; first compound 2.53 µM) was 0.364 and the relative viability ([10]; first compound 0.08 µM) was 1.15. For the same compound, the relative viability ([10]; first compound 0.253 µM) was 0.967, the relative viability ([10]; first compound 0.8 µM) was 1.12 and the relative viability ([10]; first compound 2.53 µM) was 1.15. It also gave a relative viability ([11]; first compound 0.08 µM) of 0.177, a relative viability ([11]; first compound 0.8 µM) of 0.204 and a relative viability ([11]; first compound 2.53 µM) of 0.195. It also gave a relative viability ([12]; first compound 0.08 µM) of 0.96, a relative viability ([12]; first compound 0.253 µM) of 0.905 and a relative viability ([12]; first compound 0.8 µM) of 1.02. It also gave a relative viability ([12]; first compound 2.53 µM) of 1.05, a relative viability ([13]; first compound 0.08 µM) of 0.959 and a relative viability ([13]; first compound 0.253 µM) of 1.03. For the same compound, the relative viability ([13]; first compound 0.8 µM) was 1.08, the relative viability ([13]; first compound 2.53 µM) was 1 and the relative viability ([14]; first compound 0.08 µM) was 0.397. For the same compound, the relative viability ([14]; first compound 0.253 µM) was 0.721, the relative viability ([14]; first compound 0.8 µM) was 0.646 and the relative viability ([14]; first compound 2.53 µM) was 0.691. It also gave a relative viability ([15]; first compound 0.08 µM) of 0.0904, a relative viability ([15]; first compound 0.253 µM) of 0.112 and a relative viability ([15]; first compound 0.8 µM) of 0.0537. For the same compound, the relative viability ([15]; first compound 2.53 µM) was 0.104, the relative viability ([16]; first compound 0.08 µM) was 0.41 and the relative viability ([16]; first compound 0.253 µM) was 0.255. It also gave a relative viability ([16]; first compound 0.8 µM) of 0.345, a relative viability ([16]; first compound 2.53 µM) of 0.368 and a relative viability ([17]; first compound 0.08 µM) of 0.036. The relative viability ([17]; first compound 0.253 µM) was 0.0258, the relative viability ([17]; first compound 0.8 µM) was 0.0276 and the relative viability ([17]; first compound 2.53 µM) was 0.0332. It also gave a relative viability ([18]; first compound 0.08 µM) of 0.953, a relative viability ([18]; first compound 0.253 µM) of 0.836 and a relative viability ([18]; first compound 0.8 µM) of 0.922. For the same compound, the relative viability ([18]; first compound 2.53 µM) was 0.922, the relative viability ([19]; first compound 0.08 µM) was 0.289 and the relative viability ([19]; first compound 0.253 µM) was 0.316. The relative viability ([19]; first compound 0.8 µM) was 0.83, the relative viability ([19]; first compound 2.53 µM) was 0.325 and the relative viability ([20]; first compound 0.08 µM) was 0.135. It also gave a relative viability ([20]; first compound 0.8 µM) of 0.151, a relative viability ([20]; first compound 2.53 µM) of 0.128 and a relative viability ([21]; first compound 0.08 µM) of 0.203. For the same compound, the relative viability ([21]; first compound 0.253 µM) was 0.174, the relative viability ([21]; first compound 0.8 µM) was 0.177 and the relative viability ([21]; first compound 2.53 µM) was 0.172.

From the supplement of paper PMC10307832
